Literature values as cited in US10596120B2, “Pharmaceutical compositions” (Boehringer Ingelheim International GmbH, priority 2011, dated 2020).

Settings: metformin on its own, in the diabetic

Structure (SMILES): CN(C)C(=N)N=C(N)N [metformin]
- average improvement in the HbA1c value: 1.0-1.5%
